Read-outs that look alike come from different tables or passages of the source.
Experiments:
[1] = test system: NCI-H358 cells (KRAS G12C mutant); test: NCI-H358 cell proliferation inhibition (CellTiter-Glo); format: cell-based; conditions: Homo sapiens, NCI-H358, 72 h; H358 cells (G12C mutation), 3 days, Table 6; read-out: NCI-H358 (IC50)
[2] = test system: MIA PaCa-2 cells (KRAS G12C mutant); test: MIA PaCa-2 cell anti-proliferation (CellTiter-Glo); format: cell-based; conditions: Homo sapiens
Procedure: The number of viable cells was determined using the CellTiter-Glo® assay to evaluate the anti-proliferation efficacy of compounds. […] The compounds were serially diluted 4-fold in DMSO to obtain 9 concentrations, and then further diluted with DMEM (10% FBS+2.5% horse serum+1% penicillin/streptomycin) cell culture medium to obtain the working solutions (2×), 15 μL of each working solution was added to the cell culture supernatant in each well, and the cells were further incubated for 3 days at 37° C. with 5% CO2. The plate was then equilibrated with CellTiter-Glo® reagent at room temperature (25° C.) for 30 minutes. After adding 25 μL of CellTiter-Glo®, reagent, the cells were thoroughly mixed with the CellTiter-Glo® reagent using a microplate shaker for 2 minutes, and then incubated at room temperature for at least 30 minutes. […] Data were analyzed using GraphPad Prism for IC50 values (Note: The negative control refers to the group without inhibitor).

PI3Kα = PI3Kα (Homo sapiens (Human), UniProt P42336); test: Inhibition of PI3Kα efficacy assay (ADP-Glo kinase assay); format: biochemical; conditions: Table 4; read-out: PI3Kα inhibitory activity (IC50)
PI3Kα, sequence (P42336 whole entry): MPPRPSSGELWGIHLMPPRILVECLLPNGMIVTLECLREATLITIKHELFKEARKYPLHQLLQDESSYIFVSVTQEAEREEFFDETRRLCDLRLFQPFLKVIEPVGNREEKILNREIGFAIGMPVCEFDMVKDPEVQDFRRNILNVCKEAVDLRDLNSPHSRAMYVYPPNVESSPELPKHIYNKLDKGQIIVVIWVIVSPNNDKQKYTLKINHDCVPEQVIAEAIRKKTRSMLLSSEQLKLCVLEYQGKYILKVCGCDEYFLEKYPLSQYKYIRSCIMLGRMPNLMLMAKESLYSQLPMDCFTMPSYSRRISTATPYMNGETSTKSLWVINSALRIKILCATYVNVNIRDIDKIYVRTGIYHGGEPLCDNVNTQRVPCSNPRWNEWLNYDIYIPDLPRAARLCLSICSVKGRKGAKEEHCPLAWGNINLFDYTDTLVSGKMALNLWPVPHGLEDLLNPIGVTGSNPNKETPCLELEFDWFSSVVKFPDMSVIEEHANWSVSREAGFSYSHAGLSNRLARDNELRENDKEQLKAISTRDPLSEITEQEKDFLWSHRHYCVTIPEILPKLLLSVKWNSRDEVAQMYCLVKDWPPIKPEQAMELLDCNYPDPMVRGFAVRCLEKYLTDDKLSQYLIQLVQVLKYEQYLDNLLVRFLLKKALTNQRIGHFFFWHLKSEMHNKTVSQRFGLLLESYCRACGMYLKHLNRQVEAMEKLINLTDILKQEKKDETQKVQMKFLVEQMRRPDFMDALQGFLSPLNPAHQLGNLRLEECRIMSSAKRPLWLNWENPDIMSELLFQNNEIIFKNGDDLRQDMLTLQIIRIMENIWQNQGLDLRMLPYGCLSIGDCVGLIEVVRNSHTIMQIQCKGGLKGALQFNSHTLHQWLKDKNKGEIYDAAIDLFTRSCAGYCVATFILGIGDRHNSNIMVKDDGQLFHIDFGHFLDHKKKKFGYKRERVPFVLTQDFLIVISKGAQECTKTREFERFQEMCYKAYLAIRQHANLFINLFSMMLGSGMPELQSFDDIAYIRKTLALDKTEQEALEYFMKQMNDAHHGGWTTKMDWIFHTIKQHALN
PI3Kα, sequence (P27986 whole entry partner): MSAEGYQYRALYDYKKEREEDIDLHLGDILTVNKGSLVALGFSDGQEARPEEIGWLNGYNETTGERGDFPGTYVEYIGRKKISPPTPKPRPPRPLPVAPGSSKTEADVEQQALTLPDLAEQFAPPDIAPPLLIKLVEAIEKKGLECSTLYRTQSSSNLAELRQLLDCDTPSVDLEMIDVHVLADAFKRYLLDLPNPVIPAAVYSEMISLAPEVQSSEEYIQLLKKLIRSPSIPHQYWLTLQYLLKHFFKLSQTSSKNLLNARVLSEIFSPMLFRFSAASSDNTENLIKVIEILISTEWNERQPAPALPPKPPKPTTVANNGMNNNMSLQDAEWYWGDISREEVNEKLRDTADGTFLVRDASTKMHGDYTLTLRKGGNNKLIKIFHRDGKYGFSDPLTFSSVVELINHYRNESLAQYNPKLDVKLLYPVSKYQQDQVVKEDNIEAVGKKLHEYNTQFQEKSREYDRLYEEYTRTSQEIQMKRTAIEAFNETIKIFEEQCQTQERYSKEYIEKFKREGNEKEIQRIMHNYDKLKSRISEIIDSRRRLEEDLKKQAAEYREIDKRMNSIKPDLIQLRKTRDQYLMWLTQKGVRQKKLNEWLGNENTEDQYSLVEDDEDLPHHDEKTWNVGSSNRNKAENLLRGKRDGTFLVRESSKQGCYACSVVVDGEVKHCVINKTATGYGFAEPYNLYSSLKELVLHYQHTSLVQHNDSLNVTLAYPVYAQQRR
Procedure, shortened: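 ADP-Glo luminescent detection of ADP from PI3Kα acting on PI substrate with ATP, 60 min at RT; compounds in 8-point five-fold serial dilution from 2 mM DMSO stock. IC50 from four-parameter variable-slope fit.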

[3] = 72 h, MIA Paca-2 cells, 3 days, Table 7, read-out: MIA PaCa-2 (IC50)

Structure (SMILES) | IC50 [1] [nM] | IC50 [2, 3] [nM] | IC50 (PI3Kα) [nM] | IC50 ([2]; MIA PaCa-2, 72 h, read-out: MIA PaCa-2 (IC50, nM)) [nM]
CSc1ncc(-c2ccc3ncnc(N4CCN(C(=O)/C=C/C(C)=O)CC4)c3c2)cc1NS(=O)(=O)c1ccc(F)cc1F [Example 182, (E)-2,4-difluoro-N-(2-(methylthio)-5-(4-(4-(4-oxopent-2-enoyl)piperazin-1-yl)quinazolin-6-yl)pyridin-3-yl)benzene-sulfonamide] | 228 | 202 | 0.65 | –
CC(=O)/C=C/C(=O)N1CCN(c2ncnc3ccc(-c4cnc(C)c(NS(=O)(=O)c5ccc(F)cc5F)c4)cc23)CC1 [Example 188, (E)-2,4-difluoro-N-(2-methyl-5-(4-(4-(4-oxopent-2-enoyl)piperazin-1-yl)quinazolin-6-yl)pyridin-3-yl)benzene-sulfonamide] | 530 | 865 | 3.3 | –
CCOc1ncc(-c2ccc3ncnc(N4CCN(C(=O)/C=C/C(C)=O)CC4)c3c2)cc1NS(=O)(=O)c1ccccc1F [Example 190, (E)-N-(2-ethoxy-5-(4-(4-(4-oxopent-2-enoyl)piperazin-1-yl)quinazolin-6-yl)pyridin-3-yl)-2-fluoro-benzene-sulfonamide] | 112 | 108 | 9.5 | –
CC(=O)/C=C/C(=O)N1CCN(c2ncnc3ccc(-c4cnc(C(F)(F)F)c(NS(=O)(=O)c5ccc(F)cc5F)c4)cc23)CC1 [Example 192, (E)-2,4-difluoro-N-(5-(4-(4-(4-oxopent-2-enoyl)piperazin-1-yl)quinazolin-6-yl)-2-(tri-fluoromethyl)pyridin-3-yl) benzene-sulfonamide] | 782 | 827 | 9.3 | –
CC(=O)/C=C/C(=O)N1CCN(c2ncnc3ccc(-c4cnc(OC(F)(F)F)c(NS(=O)(=O)c5ccc(F)cc5F)c4)cc23)CC1 [Example 194, (E)-2,4-difluoro-N-(5-(4-(4-(4-oxopent-2-enoyl)piperazin-1-yl)quinazolin-6-yl)-2-(trifluoromethoxy)pyridin-3-yl)benzenesulfonamide] | 728 | 782 | 2.8 | –
COc1ncc(-c2cc(F)c3ncnc(N4CCN(C(=O)/C=C/C(C)=O)CC4)c3c2)cc1NS(=O)(=O)c1ccc(F)cc1F [Example 196, (E)-2,4-difluoro-N-(5-(8-fluoro-4-(4-(4-oxopent-2-enoyl)piperazin-1-yl)quinazoline-6-yl)-2-methoxypyridin-3-yl)benzenesulfonamide] | 186 | 155 | 1.7 | –
CC(=O)/C=C/C(=O)N1CCN(c2ncnc3ccc(-c4cnc(OC(F)F)c(NS(=O)(=O)c5ccc(F)cc5F)c4)cc23)CC1 [Example 208, (E)-N-(2-(difluoromethoxy)-5-(4-(4-(4-oxopent-2-enoyl)piperazin-1-yl)quinazoline-6-yl)pyridin-3-yl)-2,4-difluorobenzenesulfonamide] | 1060 | 1040 | 30.6 | –
C=C(F)C(=O)N1CCN(c2ncnc3ccc(-c4cnc(OC)c(NS(=O)(=O)c5c(F)cccc5F)c4)nc23)CC1 [Example 211, 2,6-difluoro-N-(5-(4-(4-(2-fluoroacryloyl)piperazin-1-yl)pyrido[3,2-d]pyrimidin-6-yl)-2-methoxy-pyridin-3-yl)benzene-sulfonamide] | 12.8 | 10.4 | 1.7 | –
CCC(=O)/C=C/C(=O)N1CCN(c2ncnc3ccc(-c4cnc(OC)c(NS(=O)(=O)c5c(F)cccc5F)c4)nc23)CC1 [Example 212, (E)-2,6-difluoro-N-(2-methoxy-5-(4-(4-(4-oxohex-2-enoyl)piperazin-1-yl)pyrido[3,2-d]pyrimidin-6-yl)pyridin-3-yl) benzene-sulfonamide] | 15.2 | 14 | 3.8 | –
COc1ncc(-c2ccc3ncnc(N4CCN(C(=O)/C=C/CF)CC4)c3n2)cc1NS(=O)(=O)c1c(F)cccc1F [Example 213, (E)-2,6-difluoro-N-(5-(4-(4-(4-fluorobut-2-enoyl)piperazin-1-yl)pyrido[3,2-d]pyrimidine-6-yl)-2-methoxy-pyridin-3-yl) benzene-sulfonamide] | 14.3 | 16.4 | 9.8 | –
C=CC(=O)N1CCN(c2ncnc3ccc(-c4cnc(OC)c(NS(=O)(=O)c5c(F)cccc5F)c4)nc23)CC1 [Example 214, N-(5-(4-(4-acryloyl-piperazin-1-yl)pyrido[3,2-d]pyrimidin-6-yl)-2-methoxy-pyridin-3-yl)-2,6-difluoro-benzene-sulfonamide] | 12.6 | 6.3 | 2.1 | –
COC/C=C/C(=O)N1CCN(c2ncnc3ccc(-c4cnc(OC)c(NS(=O)(=O)c5c(F)cccc5F)c4)nc23)CC1 [Example 215, (E)-2,6-difluoro-N-(2-methoxy-5-(4-(4-(4-methoxybut-2-enoyl)piperazin-1-yl)pyridino [3,2-d]pyrimidin-6-yl)pyridin-3-yl) benzene-sulfonamide] | 10 | 6.3 | 2.4 | –
COc1ncc(-c2ccc3ncnc(N4CCN(C(=O)/C=C/C(F)(F)F)CC4)c3n2)cc1NS(=O)(=O)c1c(F)cccc1F [Example 216, (E)-2,6-difluoro-N-(2-methoxy-5-(4-(4-(4,4,4-trifluorobut-2-enoyl)piperazin-1-yl)pyridino [3,2-d]pyrimidin-6-yl)pyridin-3-yl)benzene-sulfonamide] | 56 | 47.7 | 1 | –
COc1ncc(-c2ccc3ncnc(N4CCN(C(=O)/C=C/C(C)=O)CC4)c3n2)cc1NS(=O)(=O)c1ccc(C(F)(F)F)cc1F [Example 221, (E)-2-fluoro-N-(2-methoxy-5-(4-(4-(4-oxopent-2-enoyl)piperazin-1-yl)pyrido[3,2-d]pyrimidin-6-yl)pyridin-3-yl)-4-(trifluoro-methyl)benzene-sulfonamide] | 42.9 | 60 | 2.2 | –
CCOc1ncc(-c2ccc3ncnc(N4CCN(C(=O)/C=C/C(C)=O)CC4)c3n2)cc1NS(=O)(=O)c1ccccc1F [Example 227, (E)-N-(2-ethoxy-5-(4-(4-(4-oxopent-2-enoyl)piperazin-1-yl)pyrido[3,2-d]pyrimidin-6-yl)pyridin-3-yl)-2-fluorobenzene-sulfonamide] | 83.5 | 76.2 | 2.4 | –
COc1ncc(-c2ccc3ncnc(C4=CCN(C(=O)/C=C/C(C)=O)CC4)c3n2)cc1NS(=O)(=O)c1sc(C)nc1C [Example 237, (E)-N-(2-methoxy-5-(4-(1-(4-oxopent-2-enoyl)-1,2,3,6-tetrahydropyridin-4-yl)pyrido[3,2-d]pyrimidin-6-yl)pyridin-3-yl)-2,4-dimethylthiazole-5-sulfonamide] | 58.6 | 71.6 | 5.2 | –
COc1ncc(-c2ccc3ncnc(C4=CCN(C(=O)/C=C/C(C)=O)CC4)c3n2)cc1NS(=O)(=O)c1ccccc1F [Example 238, (E)-2-fluoro-N-(2-methoxy-5-(4-(1-(4-oxopent-2-enoyl)-1,2,3,6-tetrahydropyridin-4-yl)pyrido[3,2-d]pyrimidin-6-yl)pyridin-3-yl)benzenesulfonamide] | 65.8 | 79.5 | 3.1 | –
COc1ncc(-c2ccc3ncnc(C4=CCN(C(=O)/C=C/C(C)=O)CC4)c3n2)cc1NS(=O)(=O)c1c(F)cccc1F [Example 239, (E)-2,6-difluoro-N-(2-methoxy-5-(4-(1-(4-oxopent-2-enoyl)-1,2,3,6-tetrahydropyridin-4-yl)pyrido[3,2-d]pyrimidin-6-yl)pyridin-3-yl)benzenesulfonamide] | 55 | 70.2 | 6.4 | –
COc1ncc(-c2ccc3ncnc(C4=CCN(C(=O)/C=C/C(C)=O)CC4)c3n2)cc1NS(=O)(=O)c1ccc(F)cc1F [Example 240, (E)-2,4-difluoro-N-(2-methoxy-5-(4-(1-(4-oxopent-2-enoyl)-1,2,3,6-tetrahydropyridin-4-yl)pyrido[3,2-d]pyrimidin-6-yl)pyridin-3-yl)benzenesulfonamide] | 48.7 | 55.2 | 5 | –
COc1ncc(-c2cc(C(F)(F)F)c3ncnc(N4CCN(C(=O)/C=C/C(C)=O)CC4)c3c2)cc1NS(=O)(=O)c1ccc(F)cc1F [Example 243, (E)-2,4-difluoro-N-(2-methoxy-5-(4-(4-(4-oxopent-2-enoyl)piperazin-1-yl)-8-(trifluoromethyl)quinazolin-6-yl)pyridin-3-yl)benzenesulfonamide] | 720 | – | 838 | 393
COc1ncc(-c2cc3c(N4CCN(C(=O)/C=C/C(C)=O)CC4)ncnc3cn2)cc1NS(=O)(=O)c1ccc(F)cc1F [Example 245, (E)-2,4-difluoro-N-(2-methoxy-5-(4-(4-(4-oxopent-2-enoyl)piperazin-1-yl)pyrido[3,4-d]pyrimidin-6-yl)pyridin-3-yl)benzenesulfonamide] | 497 | 827 | 14.9 | –
